Results as given in patent US8536157B2, “Non-steroidal compounds” (The University of Melbourne, priority 2007, dated 2013).
pIC50: −log10 of the molar value.

Tests used:
[1] = system: PGE2 release in U937 cells; assay: PGE2 release from PMA-treated U937 cells (radioimmunoassay); assay type: cell-based, human; conditions: 24 hour incubation; for activity at 1 µM: Homo sapiens, U-937, 24 h, read-out: Effects on PGE2 release in U937 cells at 1 μM as a % of PMA control, mean
Protocol: The U937 monocytic cell line (available from the ATCC, USA) is commonly used to evaluate anti-inflammatory agents. In the present experiment, U937 cells maintained in culture in a medium comprising RPMI containing (5% FCS v/v; supplemented with 100 U/ml penicillin, and […] streptomycin) were treated with phorbol myristate acetate (10 nM) then immediately dispersed into a 24 well cell culture plate at a concentration of 2×10^5 cells per ml in a volume of 1 ml per well. After 24 hours by which time the cells had adhered to the plastic substrate, they were treated with one of several analogues or with the vehicle of 0.1% DMSO. After a further 24 hour incubation period the supernatant was harvested and the content of prostaglandin E2 was measured by a radioimmunoassay, as described by Vlahos, R., & Stewart, A. G. (1999). (“Interleukin-1α and Tumour necrosis factor-α inhibit airway smooth muscle DNA synthesis by a glucocorticoid-sensitive induction of cyclo-oxygenase-2. British Journal of Pharmacology, 126, 1315-1324). […] The data in the table are presented as percentage of the control level of Prostaglandin E2.
Several analogues were evaluated for their actions on the release of PGE2 from the human U937macrophage cell line. Cells were stimulated by exposure to PMA 1 nM and after a period allowed for adherence of cells to the plastic culture dish, the cell were treated with one of several CP analogues. […] The chemical structures of CP1-56 and CP1-58 are as follows: […]

[2] = molecular target: proteins in rat lung membranes; assay: Competitive binding assay with [3H]-CP2117 on rat lung membranes (RLM); conditions: given as Log IC50 (negative values); displacement of 10 nM [3H]-CP2117, overnight at 4° C.; ND- not detected
[3] = system: PGE2 release in J774 macrophages; assay: PGE2 release from LPS/IFNγ-stimulated J774 macrophages (radioimmunoassay); assay type: cell-based, murine; conditions: Mus musculus, J774, 24 h, 30 min pre-treatment, 24 hour incubation; for activity at 1 µM: read-out: Effects on PGE2 release in J774 macrophages at 1 μM as a % of LPS/IFNγ control, mean; for activity at 10 µM: l0 μM, read-out: Effects on PGE2 release in J774 macrophages at l0 μM as a % of LPS/IFNγ control, mean
[4] = system: LPS-induced pulmonary inflammation in mice; assay: Model of pulmonary inflammation induced by intra-nasal delivery of LPS; assay type: in vivo; conditions: CP933 150 mg/kg ip, dexamethasone 1 mg/kg ip, 2 hours after intranasal LPS
Protocol: The effect of the compounds of the present invention on BAL cell number, total BAL protein and inflammatory gene expression may be analysed. As an example, female Balb/c mice (17-21 g) may be given a single intraperitoneal (i.p.) injection of vehicle or CP92 (150, 50, 15 and 5 mg/kg in peanut oil DMSO). Two hours after the mice would be anaesthetised with methoxyflurane and a droplet of LPS (1 μg in saline) or sterile saline would be applied to the nose. As the animals breathe through their nose, the LPS or saline would be inhaled and gain access to the lung tissue. Twenty four hours post-LPS administration, mice would be euthanized with a mixture of 200 μl ketamine and 10 μl xylazine i.p., tracheotomised and bronchoalveolar lavage (BAL) performed for the assessment of cell number, cell type and protein content. The lungs would be removed and weighed as an indicator of any adverse effects of the drug treatment. Total RNA would be isolated from the lung tissues for analysis of gene expression (mRNA) using RT-PCR.

[5] = system: human airway smooth muscle (HASM) cells; assay: Proliferation of human airway smooth muscle cells in response to thrombin (cell counting); assay type: cell-based; conditions: given as Log IC50 (negative values), thrombin 0.3 U/ml, 48 h, compound pre-incubated 30 minutes
Source text: 3. Effects of Compounds on the Proliferation of Cells in Response to the Proliferative Stimulus of Either Thrombin (Human Airway Smooth Muscle) or Basic Fibroblast Growth Factor (bFGF)(Human Lung Parenchymal Fibroblasts, pFb)
The effects of compounds of the present invention on the proliferation of cells in response to the proliferative stimulus of either thrombin (human airway smooth muscle) or basic fibroblast growth factor (bFGF)(human lung parenchymal fibroblasts, pFb) were investigated. Cells were seeded onto 6-well plates at a density of 1.5×10^4 cells cm^2, made quiescent by removal of serum-containing media for 24 hours and then stimulated for 48 h with either thrombin (0.3 U/ml) or bFGF (300 pM). The test compounds were pre-incubated with HASM or pFb cells for 30 minutes before the addition of thrombin. At the end of the 48 hour incubation period, cells were detached from the culture plate by trypsin (0.5% w/v in PBS containing 1 mM EDTA), incubated for 5 minutes at ambient temperature in PBS containing 0.5% (w/v) trypan blue, washed twice (2% FCS in PBS), isolated by centrifugation (12,000×g, 5 min) and resuspended in 200 μl 2% FCS in PBS for counting in a haemocytometer chamber.
Human airway smooth muscle (HASM) cells were cultured from macroscopically normal bronchi (0.5-2 cm diameter) obtained from lung resection or heart-lung transplant specimens provided by the Alfred Hospital (Melbourne) according to methods published in detail previously (Fernandes et al., 1999).
Approximately 0.1 g of smooth muscle was stripped from the wall of the bronchus for each cell culture. Dissected tissue was immersed in Dulbecco's modified Eagle's medium (DMEM) (Flow Laboratories, Scotland), supplemented with 100 U/mL penicillin G (CSL, Australia) and 100 μg/mL streptomycin (CSL, Australia). The tissue was rinsed in phosphate buffered saline (PBS; Oxoid, England) and the airway smooth muscle was chopped into 2 mm^3 pieces and digested for 2 hours in DMEM containing elastase (0.5 mg/mL: Worthington Biochemical, USA) followed by a 12 hour incubation in DMEM containing collagenase (1 mg/mL) (Worthington Biochemical, USA), at 37° C. with agitation.
The resulting cell suspension was centrifuged and washed three times in phosphate buffered saline (PBS). Following the last centrifugation step, the cells were resuspended in 25 mL of DMEM supplemented with L-glutamine (2 mM: Sigma, USA), penicillin G (100 U/mL), streptomycin (100 μg/mL), amphotericin B (2 μg/mL: Wellcome, UK) and heat-inactivated FCS (10% v/v: CSL, Australia) and seeded into 25 cm^2 culture flasks. The primary isolates were incubated for 7 to 14 days to reach confluence. […]

SMILES | activity at 1 µM [1] | Log IC50 RLM binding [2] | also measured
COc1cc2c(cc1O)/C(=N/OCc1ccc([N+](=O)[O-])cc1)C(C)(C)CC2 [AA-1-39-2] | 100% | −6.19 | –
C/C(=N\OCc1ccc2nonc2c1)c1ccccc1 [AA-1-53] | 91% | – | –
COc1ccc(/C(C)=N/OCc2ccc3nonc3c2)cc1 [AA-1-54] | 76% | – | –
C/C(=N\OCc1ccc2nonc2c1)c1ccc2c(c1)OCO2 [AA-1-55] | 90% | – | –
COc1cc(/C(C)=N/OCc2ccc3nonc3c2)ccc1O [AA-1-56] | 16% | −6.21 | –
COc1ccc(/C(C)=N/OCc2ccc3nonc3c2)cc1OC [AA-1-58] | 111% | −4.74 | –
COc1cc(/C(C)=N/OCc2ccc3nonc3c2)ccc1OS(N)(=O)=O [AA-1-78] | 19% | −4.87 | –
COc1cc2c(cc1OS(N)(=O)=O)C(=NOCc1ccc([N+](=O)[O-])cc1)C(C)(C)CC2 [AA-1-79] | 113% | −4.58 | –
COc1ccc(/C(C)=N/OCc2ccc3nonc3c2)cc1O [AA-1-80] | 38% | −6.33 | –
COc1ccc(C(C)=NOCc2ccc3nonc3c2)cc1OS(N)(=O)=O [AA-1-81] | 43% | −5.25 | –
COc1ccc(/C(C)=N/OCc2ccc3nonc3c2)cc1O [CP933, 1-(3-hydroxy-4-methoxyphenyl)ethanone-O-[(benzo[c][1,2,5]oxadiazol-5-yl)methyl]oxime] | – | −6.185 | activity at 1 µM [3]: 109%; activity at 10 µM [3]: 87%; Airspace (pulmonary) neutrophilia ([4]; FIG. 1A): attenuated the airspace neutrophilia; Protein in the broncho-alveolar lavage (BAL) fluid ([4]; FIG. 1B): reduced accumulation of protein
COc1cc(I)c(C(C)=NOCc2ccc([N+](=O)[O-])cc2)cc1O [CP30220-minor (Z-), 5′-Hydroxy-2′-iodo-4′-methoxyacetophenone O-4-Nitrobenzyl Oxime] | – | – | pIC50 [5]: 7.41
CCC(=NOCc1ccc([N+](=O)[O-])cc1)c1ccc(OC)c(O)c1 [CP30221, 3′-Hydroxy-4′-methoxypropiophenone O-4-Nitrobenzyl Oxime] | – | – | pIC50 [5]: 5.54
CCC(=NOCc1ccc([N+](=O)[O-])cc1)c1cc(O)c(OC)cc1I [CP30222, 5′-Hydroxy-2′-iodo-4′-methoxypropiophenone O-4-Nitrobenzyl Oxime] | – | – | pIC50 [5]: 8.08
COc1ccc(/C(C)=N/OCc2ccc([N+](=O)[O-])cc2)cc1 [CP30253, (E)-4′-Methoxyacetophenone O-4-Nitrobenzyl Oxime] | – | – | melting point: 88.2 to 89.5 °C; activity at 1 µM [3]: 47%; activity at 10 µM [3]: 4%
COc1cc(/C(C)=N/OCc2ccc([N+](=O)[O-])cc2)ccc1O [CP30261, (E)-4′-Hydroxy-3′-methoxyacetophenone O-4-Nitrobenzyl Oxime] | – | −6.65 | melting point: 118.4 to 121.1 °C
COC(=O)c1ccc(CO/N=C(\C)c2ccc(OC)c(O)c2)cc1 [CP30263, (E)-3′-Hydroxy-4′-methoxyacetophenone O-4-Carbomethoxybenzyl Oxime] | – | −6.46 | melting point: 97.7 to 98.7 °C
COc1ccc(/C(C)=N/OCc2cc(F)cc(F)c2)cc1O [CP30274, (E)-3′-Hydroxy-4′-methoxyacetophenone O-3,5-Difluorobenzyl Oxime] | – | −6.86 | melting point: 47.7 to 50.2 °C
COc1ccc(/C(C)=N/OCc2ccc(C#N)cc2)cc1O [CP30283, (E)-3′-Hydroxy-4′-methoxyacetophenone O-4-Cyanobenzyl Oxime] | – | −6.05 | melting point: 125.9 to 129.7 °C
COc1cc(-c2ccc(NC(=O)OC(C)(C)C)cc2)c(/C(C)=N/OCc2ccc([N+](=O)[O-])cc2)cc1O [CP30342, (E)-2′-(4-tert-Butoxycarbonylaminophenyl)-5′-hydroxy-4′-methoxyacetophenone O-4-Nitrobenzyl Oxime] | – | −6.79 | melting point: 91 to 96.8 °C; activity at 1 µM [3]: 19%; activity at 10 µM [3]: 0%
COc1cc(-c2ccc(C)cc2)c(/C(C)=N/OCc2ccc([N+](=O)[O-])cc2)cc1O [CP30345, (E)-5′-Hydroxy-4′-methoxy-2′-(4-methylphenyl)acetophenone O-4-Nitrobenzyl Oxime] | – | −6.33 | melting point: 105.9 to 108.7 °C; activity at 1 µM [3]: 76%; activity at 10 µM [3]: 1%
COc1cc(-c2ccc(C(F)(F)F)cc2)c(/C(C)=N/OCc2ccc([N+](=O)[O-])cc2)cc1O [CP30346, (E)-2′-(4-Trifluoromethylphenyl)-5′-hydroxy-4′-methoxyacetophenone O-4-Nitrobenzyl Oxime] | – | −5.99 | melting point: 111.5 to 114.1 °C; activity at 1 µM [3]: 78%; activity at 10 µM [3]: 34%
COc1cc([C@H]2CC[C@](C)(CO)CC2)c(C(C)=NOCc2ccc([N+](=O)[O-])cc2)cc1O [CP30450A, 2′-(4-hydroxymethyl-4-methyl)cyclohexyl-5′-hydroxy-4′-methoxyacetophenone O-4-Nitrobenzyl Oxime] | 80% | −5.81 | –
COc1cc([C@H]2CC[C@](C)(CO)CC2)c(C(C)=NOCc2ccc([N+](=O)[O-])cc2)cc1O [CP30450B, 2′-(4-hydroxymethyl-4-methyl)cyclohexyl-5′-hydroxy-4′-methoxyacetophenone O-4-Nitrobenzyl Oxime] | – | −5.85 | Effects on PGE2 release in U937 cells at 1 μM as a % of PMA control, mean [1]: 77 % of PMA control
COc1cc([C@H]2CC[C@@](C)(CO)CC2)c(C(C)=NOCc2ccc([N+](=O)[O-])cc2)cc1O [CP30451, 2′-(4-hydroxymethyl-4-methyl)cyclohexyl-5′-hydroxy-4′-methoxyacetophenone O-4-Nitrobenzyl Oxime] | 67% | −5.73 | –
COc1cc([C@H]2CC[C@](C)(CO)CC2)c(C(C)=NOCc2ccc3nonc3c2)cc1O [CP30452, 2′-(4-Hydroxymethyl-4-methyl)cyclohexyl-5′-hydroxy-4′-methoxyacetophenone O-(benzofurazan-5-yl)methyl Oxime] | 89% | −5.54 | –
Brc1cc2c(cc1/C=N/OCc1ccccc1)OCO2 [Compound 10-OK-07a] | 114% | −4.76 | –
